Article PMC7052193, “Nanobody-enabled monitoring of kappa opioid receptor states” (Nature Communications, 2020)
Several values for one entry are separate records, joined by “and”; a condition that tells them apart may be missing. Equal values may be shown once. Read-outs that look alike come from different tables or passages of the source.

Columns and labels:
5-HT2AR [1] = type: cell-based, human; conditions: 5-HT2AR-KOR, Log [5-HT]
5-HT4R = type: cell-based, human; conditions: Gαs, 5-HT4R wt
5-HT2AR [2] = type: cell-based, human; conditions: 5-HT2AR-KOR, Log [Drug]
HRH2 [3] = biological target: HRH2 (Homo sapiens, UniProt P25021); conditions: Log [Histamine]
HRH2 [4] = conditions: Log [Histamine]
HRH2 [5] = conditions: Gαs, HRH2 wt
human wild-type KOR = human wild-type KOR (Homo sapiens, UniProt P41145); assay: [3H]-JDTic association and dissociation assays; type: binding
Method: Radioligand dissociation and association assays were performed in parallel using the same concentrations of radioligand, membrane preparations and binding buffer (50 mM Tris, 10 mM MgCl2, 0.1 mM EDTA, 0.1% BSA, pH 7.4).
Time points spanned 1 min to 6 h, depending on experimental conditions and radioligand. The association (Kon) and dissociation (Koff) values were calculated using the Prism model:
Association kinetics to obtain kon5 Y=Ymax*(1−e^−kob*X).
Dissociation—one phase exponential decay to obtain koff6 Y=YO−NS*e^−K*X,

KOR = KOR (Homo sapiens, UniProt P41145); assay: cAMP inhibition assay (GloSensor); type: cell-based
kappa receptor = biological target: kappa receptor; design: method as in Thomas JB et al., 2001; conditions: previously reported; ref Thomas JB et al., 2001; read-out: Ki, kappa receptor binding assay; cited from earlier work
[6] = biological target: T1, human KOR containing C-terminal Renilla luciferase (RLuc8) (human, UniProt P41145); assay: FRET or BRET; live HEK 293T cells co-transfected with receptor-RLuc and nanobody-mVenus (1:3); net BRET ratio without agonist (no drug, or with the antagonist JDTic); 20 mM HEPES, 1X HBSS, pH 7.4; conditions: partners not purified
T1 construct: kappa opioid receptor, human, wild type; also called KOR-Rluc; kappa opioid receptor; source: HEK 293T, co-transfected, in live cells; not shown: RLuc8, C-terminal, kept

[7] = read-out: EC50, G protein activation

Chain of HRH2 (Homo sapiens, UniProt P25021) (P25021 whole entry): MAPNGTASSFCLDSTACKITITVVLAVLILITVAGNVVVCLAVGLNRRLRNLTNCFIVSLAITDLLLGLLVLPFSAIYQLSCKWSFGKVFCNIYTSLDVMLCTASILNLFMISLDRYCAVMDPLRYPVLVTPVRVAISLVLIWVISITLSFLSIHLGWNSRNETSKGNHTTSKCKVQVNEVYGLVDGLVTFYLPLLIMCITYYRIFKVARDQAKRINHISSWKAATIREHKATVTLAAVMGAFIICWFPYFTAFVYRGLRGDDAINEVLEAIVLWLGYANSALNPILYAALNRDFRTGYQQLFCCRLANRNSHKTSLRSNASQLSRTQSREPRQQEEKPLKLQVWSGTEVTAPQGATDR
Chain of human wild-type KOR (P41145 whole entry): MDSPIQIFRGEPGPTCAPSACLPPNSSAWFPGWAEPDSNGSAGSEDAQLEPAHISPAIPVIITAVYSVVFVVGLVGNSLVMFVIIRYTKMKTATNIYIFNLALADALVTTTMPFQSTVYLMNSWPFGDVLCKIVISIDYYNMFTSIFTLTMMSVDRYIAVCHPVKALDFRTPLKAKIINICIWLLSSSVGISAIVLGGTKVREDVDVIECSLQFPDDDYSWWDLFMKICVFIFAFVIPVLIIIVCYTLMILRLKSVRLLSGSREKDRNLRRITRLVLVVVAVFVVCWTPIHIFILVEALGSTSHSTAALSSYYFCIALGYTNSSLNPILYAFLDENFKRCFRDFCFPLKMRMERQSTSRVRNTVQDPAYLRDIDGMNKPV
T1 sequence (P41145 whole entry): as above
Chain of KOR (P41145 whole entry): as above

NCCc1c[nH]c2ccc(O)cc12 [5-HT]
Net BRET receptor and Nb6, source data Figure 5b (5-HT2AR [1]; M = -4): 4.555 and 4.236 and 2.584 | Net BRET receptor and Nb6, source data Figure 5b (5-HT2AR [1]; M = -6): 27.0627 and 18.3518 and 18.7135 | Net BRET receptor and Nb6, source data Figure 5b (5-HT2AR [1]; M = -7): 54.7274 and 50.7842 and 46.0256 | Net BRET receptor and Nb6, source data Figure 5b (5-HT2AR [1]; M = -8): 79.692 and 81.7337 and 74.4168 | Net BRET receptor and Nb6, source data Figure 5b (5-HT2AR [1]; M = -9): 96.2676 and 98.9652 and 90.7989 | Net BRET receptor and Nb6, source data Figure 5b (5-HT2AR [1]; M = -10): 102.206 and 99.7037 and 92.1127 | Net BRET receptor and Nb6, source data Figure 5b (5-HT2AR [1]; M = -11): 99.4094 and 102.177 and 98.4133 | pEC50 ± SEM, G protein activation (5-HT4R): 8.55 ± 0.13 | EC50 (5-HT4R; [7]): 2.85 nM | Net BRET G protein activation, source data Figure 5c (5-HT2AR [2]; M = -5): 4.77 and 5.378 and 5.642 | Net BRET G protein activation, source data Figure 5c (5-HT2AR [2]; M = -7): 5.149 and 9.509 and 8.117 | Net BRET G protein activation, source data Figure 5c (5-HT2AR [2]; M = -8): 64.908 and 45.488 and 55.524 | Net BRET G protein activation, source data Figure 5c (5-HT2AR [2]; M = -9): 89.3557 and 61.3025 and 75.4781 | Net BRET G protein activation, source data Figure 5c (5-HT2AR [2]; M = -10): 101.409 and 99.4572 and 101.001 | Net BRET G protein activation, source data Figure 5c (5-HT2AR [2]; M = -11): 93.2037 and 102.876 and 98.9921 | Net BRET G protein activation, source data Figure 5c (5-HT2AR [2]; M = -12): 99.8736 and 92.5765 and 96.7631

NCCc1c[nH]cn1 [Histamine]
HRH2 wt (Figure S10) (HRH2 [3]; M -4): 0.035 and 0.037 and 0.032 | HRH2 wt (Figure S10) (HRH2 [3]; M -5): 0.04 and 0.037 and 0.043 | HRH2 wt (Figure S10) (HRH2 [3]; M -6): 0.037 and 0.041 and 0.043 | HRH2 wt (Figure S10) (HRH2 [3]; M -7): 0.041 and 0.036 and 0.042 | HRH2 wt (Figure S10) (HRH2 [3]; M -8): 0.038 and 0.039 | HRH2 wt (Figure S10) (HRH2 [3]; M -9): 0.037 and 0.039 and 0.042 | HRH2 wt (Figure S10) (HRH2 [3]; M -10): 0.036 and 0.04 and 0.031 | HRH2 wt (Figure S10) (HRH2 [3]; M -11): 0.029 and 0.038 and 0.037 | HRH2-KOR (Figure S10) (HRH2 [4]; M -4): 5.219 and 6.229 and 8.754 | HRH2-KOR (Figure S10) (HRH2 [4]; M -8): 49.1583 and 70.3704 | HRH2-KOR (Figure S10) (HRH2 [4]; M -9): 71.8855 and 67.8451 and 91.0774 | HRH2-KOR (Figure S10) (HRH2 [4]; M -10): 90.0673 and 96.633 and 108.754 | HRH2-KOR (Figure S10) (HRH2 [4]; M -11): 95.6229 and 98.6532 and 105.724 | pEC50 ± SEM, G protein activation (HRH2 [5]): 7.64 ± 0.10 | EC50 (HRH2 [5]; [7]): 23.2 nM

CC(C)[C@@H](CN1CC[C@@](C)(c2cccc(O)c2)[C@@H](C)C1)NC(=O)[C@H]1Cc2ccc(O)cc2CN1 [JDTic, (3R)-7-hydroxy-N-((1S)-1-[[(3R,4R)-4-(3-hydroxyphenyl)-3,4-dimethyl-1-piperidinyl]methyl]-2-methylpropyl)-1,2,3,4-tetrahydro-3-isoquinolinecarboxamide]
change of binding affinity (Ki) or equilibrium constant (Kd) with KOR in the presence of Nb6 or Nb39 (human wild-type KOR): no significant changes | t1/2 increase, KOR preincubated with Nb6 compared to untreated KOR (human wild-type KOR): ~ 2 fold | BMAX ± SEM (human wild-type KOR; KOR + Nb6): 468 ± 54 CPM | BMAX ± SEM (human wild-type KOR; KOR + Nb39): 423 ± 59 CPM | BMAX ± SEM (human wild-type KOR; KOR wt): 412 ± 46 CPM | activity at KOR, Gi-mediated inhibition of cAMP production (KOR): potent inverse agonist | Ki (kappa receptor): 0.3 nM

B1: Nb6-mVenus with R102 mutated (VHH)
VHH: QVQLQESGGGLVQAGESLRLSCAASGTIFRLYDMGWYRRVSGNQRELVASITSGGSTKYGDSVKGRFTISRDNAKNTVYLQMSSLKPEDTAVYYCNAEYATGIWEELLDGWGQGTQVTVSS
notes: as the chain of m4 (PDB 6VI4) with R102 mutated; also called Nb6 R102 mutant; source: HEK 293T, co-transfected, in live cells; not shown: mVenus, C-terminal, kept
binding result [6]: no binding

B2: Nb6-mVenus with W106 mutated (VHH)
VHH: QVQLQESGGGLVQAGESLRLSCAASGTIFRLYDMGWYRRVSGNQRELVASITSGGSTKYGDSVKGRFTISRDNAKNTVYLQMSSLKPEDTAVYYCNAEYRTGIAEELLDGWGQGTQVTVSS
notes: as the chain of m4 (PDB 6VI4) with W106 mutated; also called Nb6 W106 mutant; source: HEK 293T, co-transfected, in live cells; not shown: mVenus, C-terminal, kept
binding result [6]: no binding
